Reference: US4551460A, “Pyrido[2,1-b]quinazoline derivatives useful as agents for treatment of allergic conditions and vascular disorders involving thrombosis” (priority 1983, dated 1985)

Columns and labels:
PAF induced mortality = experiment: Prevention of mortality induced by platelet aggregating factor (PAF); type: in vivo, mice (CF1); details: PAF 0.10 mg/kg i.v.
Protocol: (k) Prevention of Mortality Induced by Platelet Aggregating Factor (PAF)
Male CF1 mice weighing 20-30 gms (Carworth Farms Co.) are fed ad libitum.
Racemic 2-[[[2-(acetyloxy)-3-(octadecyloxy)propoxy]hydroxyphosphinyl]oxy]-N,N,N-trimethylethanaminium hydroxide inner salt hemihydrate (PAF) is concentrated in ethanol at a concentration of 1 mg/ml.At the time of experimentation, PAF is diluted in 0.1% BSA (bovine serum albumin) and administered intravenously at a dose of 0.10 mg/kg one hour after 10 mice are dosed with either vehicle (BSA) or drug. Mortality in mice treated with PAF occurs within 30 minutes after i.v. administration.

[1] = system: histamine-induced bronchoconstriction; experiment: Antagonism of histamine-induced bronchoconstriction in guinea pigs; type: in vivo, guinea pig (Hartley strain); details: Cavia porcellus, po, 2 hour pretreatment; read-out: ID50 antagonism of histamine-induced bronchoconstriction
Protocol: (g) Antagonism of PAF and Histamine-induced Bronchoconstriction in Guinea Pig
Spontaneously breathing male guinea pigs (Hartley strain) weighing 300-450 grams are dosed orally with test drug or control vehicle two hours prior to challenge with agonist. The animals are anesthetized with urethane (2 gm/kg) intraperitoneally and the jugular vein and trachea are cannulated. Two hours after dosing, the animal is paralyzed with succinylcholine (1.2 mg/kg, i.v.) and ventilated (Harvard rodent respirator) at 40 breaths/minutes and 2.5 cc tidal volume. Propranolol (0.1 mg/kg, i.v.) is administered and five minutes thereafter the animal is challenged with a constrictory dose of platelet activating factor (10 μg/kg, i.v.) or histamine dihydrochloride (20 μg/kg, i.v.). The change (cm H2 O) between pre and peak ventilatory pressure readings is averaged for three control animals and five drug treated animals. The percent inhibition is calculated from the following formula: (Control-Drug Treated/Control)×100.

SMILES | ED50 (PAF induced mortality; Mus musculus, Platelet, oral, read-out: oral ID50 (Inhibiting Dose), PAF induced mortality) | prevention of PAF induced mortality (PAF induced mortality) | ED50 [1]
CC(C)c1ccc2nc3ccc(C(=O)NCCCCCCc4cccnc4)cn3c(=O)c2c1 [Compound C, 2-(1-Methylethyl)-N-[6-(3-pyridyl)hexyl]-11-oxo-11H-pyrido[2,1-b]quinazoline-8-carboxamide] | 13 mg/kg | prevented PAF induced mortality | 
CC(C)c1ccc2nc3ccc(C(=O)NCCCCn4ccnc4)cn3c(=O)c2c1 [Compound A, N-[4-(1H-imidazol-1-yl)butyl]-2-(1-methylethyl)-11-oxo-11H-pyrido[2,1-b]quinazoline-8-carboxamide] |  |  | 39 mg/kg
